According to ChEMBL document CHEMBL1201862, “PubChem BioAssay data set” (2004):
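Assay format: 96-well plates, 48-hour exposure. Abbreviation: GI50, concentration required for 50% inhibition of growth.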 The source made the active and inactive calls. Cut-off read from the data, not from the text of the source: active = GI50 up to about 1.1 µM and inactive = higher.

Columns and labels:
Assay in all cases: NCI-60 cell line screen, 48 h
A549 = test system: A549
CAKI-1 = test system: CAKI-1
CCRF-CEM = test system: CCRF-CEM
COLO 205 = test system: COLO 205
HL-60 = test system: HL-60
HT-29 = test system: HT-29
K562 = test system: K562
KM12 = test system: KM12
LOX IMVI = test system: LOX IMVI
NCI-H522 = test system: NCI-H522
SK-OV-3 = test system: SK-OV-3
SNB-19 = test system: SNB-19
SNB-75 = test system: SNB-75
SR = test system: SR
SW-620 = test system: SW-620
U-251 = test system: U-251
UO-31 = test system: UO-31
OVCAR-3 = test system: OVCAR-3
OVCAR-8 = test system: OVCAR-8
SK-MEL-5 = test system: SK-MEL-5

Compound | GI50 (A549) | GI50 (CAKI-1) | GI50 (CCRF-CEM) | GI50 (COLO 205) | GI50 (HL-60) | GI50 (HT-29) | GI50 (K562) | GI50 (KM12) | GI50 (LOX IMVI) | GI50 (NCI-H522) | GI50 (SK-OV-3) | GI50 (SNB-19) | GI50 (SNB-75) | GI50 (SR) | GI50 (SW-620) | GI50 (U-251) | GI50 (UO-31) | GI50 (OVCAR-3) | GI50 (OVCAR-8) | GI50 (SK-MEL-5)
CCOC(=O)c1ccc(O)cc1 [ETHYLPARABEN] | > 100 µM (inactive) | > 100 µM (inactive) | > 100 µM (inactive) | > 100 µM (inactive) | > 100 µM (inactive) | > 100 µM (inactive) | > 100 µM (inactive) | > 100 µM (inactive) | > 100 µM (inactive) | > 100 µM (inactive) | > 100 µM (inactive) | > 100 µM (inactive) | > 100 µM (inactive) | > 100 µM (inactive) | > 100 µM (inactive) | > 100 µM (inactive) | > 100 µM (inactive) | – | – | –
COc1ccc(/C(C=O)=C(\Cl)c2ccc(OC)c(OC)c2)cc1 | > 100 µM (inactive) | > 100 µM (inactive) | 52.4 µM (inactive) | – | 24 µM (inactive) | > 100 µM (inactive) | 62.8 µM (inactive) | – | > 100 µM (inactive) | 5.83 µM (inactive) | 67.1 µM (inactive) | > 100 µM (inactive) | 22.6 µM (inactive) | 3.89 µM (inactive) | > 100 µM (inactive) | 32.1 µM (inactive) | > 100 µM (inactive) | > 100 µM (inactive) | 75.5 µM (inactive) | > 100 µM (inactive)
CN(Cc1cnc2nc(N)nc(N)c2n1)c1ccc(C(=O)NC(CCC(=O)O)C(=O)O)cc1 (stereo not given) | 0.0384 µM (active) | < 0.0157 µM (active) | – | 0.705 µM (active) | < 0.01 µM (active) | < 0.01 µM (active) | < 0.01 µM (active) | < 0.0164 µM (active) | < 0.01 µM (active) | 0.398 µM (active) | 1.24 µM (inactive) | 0.619 µM (active) | > 57 µM (inactive) | < 0.01 µM (active) | < 0.01 µM (active) | 0.0916 µM (active) | 0.232 µM (active) | 0.111 µM (active) | < 0.0448 µM (active) | 0.0661 µM (active)
O=C1c2ccccc2C(=O)C1(O)c1c[nH]c2ccccc12 | > 100 µM (inactive) | > 100 µM (inactive) | > 100 µM (inactive) | > 100 µM (inactive) | > 100 µM (inactive) | > 100 µM (inactive) | > 100 µM (inactive) | > 100 µM (inactive) | > 100 µM (inactive) | > 100 µM (inactive) | > 100 µM (inactive) | > 100 µM (inactive) | > 100 µM (inactive) | > 100 µM (inactive) | > 100 µM (inactive) | > 100 µM (inactive) | > 100 µM (inactive) | > 100 µM (inactive) | > 100 µM (inactive) | –
NC1=NN(c2ccccc2)C(=O)C1C(=O)C(=O)Nc1ccc(Cl)cc1 (stereo not given) | > 100 µM (inactive) | > 100 µM (inactive) | > 100 µM (inactive) | > 100 µM (inactive) | > 100 µM (inactive) | > 100 µM (inactive) | > 100 µM (inactive) | > 100 µM (inactive) | > 100 µM (inactive) | > 100 µM (inactive) | > 100 µM (inactive) | – | > 100 µM (inactive) | > 100 µM (inactive) | > 100 µM (inactive) | > 100 µM (inactive) | > 100 µM (inactive) | > 100 µM (inactive) | > 100 µM (inactive) | > 100 µM (inactive)
CCN1CCN(c2nc3ccccc3nc2C(=O)c2ccc(OC)c(OC)c2)CC1 | 13.6 µM (inactive) | 82.4 µM (inactive) | 10 µM (inactive) | 1.5 µM (inactive) | 44.1 µM (inactive) | 12.6 µM (inactive) | 12.6 µM (inactive) | 15.4 µM (inactive) | 12.7 µM (inactive) | 12 µM (inactive) | 12.1 µM (inactive) | 24 µM (inactive) | 12.9 µM (inactive) | 7.06 µM (inactive) | 15.7 µM (inactive) | 14.8 µM (inactive) | 13.7 µM (inactive) | 22.2 µM (inactive) | 12.6 µM (inactive) | –
C[Si](C)(OCCS(=O)(=O)O)C1S(=O)(=O)OCCOS1(=O)=O | – | 27.7 µM (inactive) | 58.1 µM (inactive) | > 100 µM (inactive) | 27.5 µM (inactive) | > 100 µM (inactive) | 70 µM (inactive) | 91.6 µM (inactive) | 21.2 µM (inactive) | 68.1 µM (inactive) | 79.4 µM (inactive) | 36.8 µM (inactive) | 20.5 µM (inactive) | 38.4 µM (inactive) | 0.495 µM (active) | 21.8 µM (inactive) | 58.6 µM (inactive) | > 100 µM (inactive) | 86.3 µM (inactive) | 49.5 µM (inactive)
COC1C(O)C(C)OC(O[C@@H]2C[C@H]3CC[C@@H]4[C@H](CC[C@]5(C)[C@@H](C6=CC(=O)OC6)CC[C@]45O)[C@@]3(C)[C@H](O)C2)C1O (stereo not given in full) | < 0.0221 µM (active) | 0.0225 µM (active) | 0.0559 µM (active) | 0.191 µM (active) | < 0.04 µM (active) | 0.0849 µM (active) | 0.0785 µM (active) | 0.296 µM (active) | < 0.0362 µM (active) | < 0.01 µM (active) | < 0.0193 µM (active) | 0.264 µM (active) | 0.126 µM (active) | 0.0766 µM (active) | 0.0782 µM (active) | 0.0849 µM (active) | – | < 0.0258 µM (active) | 0.0472 µM (active) | < 0.0258 µM (active)
CC1C(c2ccc(N(C)C)cc2)c2cc3c(cc2OC1N1CCCC1)OCO3 (stereo not given) | 45.3 µM (inactive) | 38.5 µM (inactive) | 36 µM (inactive) | 45 µM (inactive) | 28 µM (inactive) | 32.5 µM (inactive) | 32.5 µM (inactive) | 47.2 µM (inactive) | 38.2 µM (inactive) | 29.5 µM (inactive) | – | 48.3 µM (inactive) | > 34.4 µM (inactive) | 38.8 µM (inactive) | 42 µM (inactive) | 34 µM (inactive) | 30.8 µM (inactive) | 43.5 µM (inactive) | 70.3 µM (inactive) | 30.6 µM (inactive)
NC(=O)C(=O)c1ncn(Cc2ccccc2)c1N | > 100 µM (inactive) | > 100 µM (inactive) | > 100 µM (inactive) | > 100 µM (inactive) | > 100 µM (inactive) | > 100 µM (inactive) | > 100 µM (inactive) | > 100 µM (inactive) | 89.5 µM (inactive) | > 100 µM (inactive) | > 100 µM (inactive) | > 100 µM (inactive) | > 100 µM (inactive) | > 100 µM (inactive) | > 100 µM (inactive) | > 100 µM (inactive) | – | > 100 µM (inactive) | > 100 µM (inactive) | > 100 µM (inactive)
N#CC1=C(N)n2c(s/c(=C\c3ccc(Cl)cc3)c2=O)=C(c2nc3ccccc3[nH]2)C1c1ccc(Cl)cc1 (stereo not given) | 3.32 µM (inactive) | 2.98 µM (inactive) | 1.71 µM (inactive) | 2.51 µM (inactive) | 2.04 µM (inactive) | – | 1.91 µM (inactive) | 1.42 µM (inactive) | 1.65 µM (inactive) | 1.96 µM (inactive) | – | 3.28 µM (inactive) | 2.77 µM (inactive) | 2.17 µM (inactive) | 1.37 µM (inactive) | 1.48 µM (inactive) | 4.45 µM (inactive) | 1.8 µM (inactive) | 1.81 µM (inactive) | 3.02 µM (inactive)
